Assay type in all cases: cell-based
The test system of assay [1] is OCI-LY2 (diffuse large B-cell lymphoma, subtype—germinal center B-cell). Nature of the assay: MTT cytotoxicity assay, OCI-LY2 lymphoma cell line. As to conditions: 72 h, OCI-LY2 cells, three days, read-out: Lymphoma cell lines GI50, OCI-LY2. The source says: (§1) Cytotoxicity of the compounds is the major property determining their anti-lymphoma efficacy in vitro. One of the parameters used, as the basis for cytotoxicity assays, is the metabolic activity of viable cells. For example 2, a microtiter assay, which uses (3-(4,5-dimethylthiazol-2-yl)-2,5-diphenyltetrazolium bromide (MTT), is widely used to quantitate cell proliferation and cytotoxicity. This assay is widely used in drug screening programs and in chemosensitivity testing. Because only metabolically active living cells reduce MTT to correspond purple formazan dye, these assays detect viable cells exclusively. The quantity of reduced MTT corresponds to the number of vital cells in the culture.
(§2) The compounds were assayed using the following lymphoma cell lines: HT (diffuse large B-cell lymphoma, subtype—germinal center B-cell), OCI-LY2 (diffuse large B-cell lymphoma, subtype—germinal center B-cell), MINO (mantle cell lymphoma). All cell lines were grown in RPMI medium supplemented with fetal bovine serum and glutamine and maintained at 37° C. in a humidified atmosphere with 5% CO2. For cytotoxicity assays, 5000-10000 cells were seeded into each well of 96 well plate, allowed to stabilize for at least 8 h and then tested compounds were added at various concentrations ranging from 100 to 0.01 μM in triplicates. After three days, MTT solution (5 mg/ml; Sigma, St. Louis, USA) was added to cells and medium was replaced with DMSO after five hours. The absorbance was measured at 620 nm by employing a microplate reader. MTT assays were repeated 3 times for each drug application and untreated cells were used as reference. The GI50 values, drug concentrations lethal to 50% of the cells, were calculated from the obtained dose response curves.

Assay [2] has as its system MINO (mantle cell lymphoma). Nature of the assay: MTT cytotoxicity assay, MINO lymphoma cell line. Particulars: Homo sapiens, 72 h, MINO cells, three days, read-out: Lymphoma cell lines GI50, MINO.
Description: as §1, §2

Assay [3] relates to HT (diffuse large B-cell lymphoma, subtype—germinal center B-cell). Nature of the assay: MTT cytotoxicity assay, HT lymphoma cell line. As to conditions: Homo sapiens, 72 h, HT cells, three days, read-out: Lymphoma cell lines GI50, HT.
Description: as §1, §2
Background: Tetrazolium assays rely on reduction of a dye to a coloured formazan, in cell work by metabolically active cells.

Here are results for 20 molecules from US11186583B2, “5-alkylthio-7-[(4-arylbenzyl)amino]-1(2)H-pyrazolo[4,3-d]pyrimidines for treatment of lymphoma” (UNIVERZITA PALACKEHO V OLOMOUCI, priority 2018, dated 2021).

SMILES strings stand for the structures.

The term GI50 denotes the concentration giving 50% growth inhibition. As to `CNCCSc1nc(NCc2ccc(-c3ccccn3)cc2)c2[nH]nc(C(C)C)c2n1` [Compound 4.34, 5-(3-Methylamino-1-ethyl)thio-3-isopropyl-7-[4-(2-pyridyl)benzyl]amino-1(2)H-pyrazolo[4,3-d]pyrimidine], the results for the GI50 in assay [1], in assay [2] and in assay [3] were 92 nM, 40 nM and 56 nM, respectively.

With `CC(C)c1n[nH]c2c(NCc3ccc(-c4ccccn4)cc3)nc(SC3CCCCC3N)nc12` (stereo not drawn) [Compound 4.31, 5-(2-Aminocyclohexyl)thio-3-isopropyl-7-[4-(2-pyridyl)benzyl]amino-1(2)H-pyrazolo[4,3-d]pyrimidine], the values for the GI50 in assay [1], in assay [2] and in assay [3] were 136 nM, 157 nM and 139 nM, respectively.

For `CC(C)c1n[nH]c2c(NCc3ccc(-c4ccccn4)cc3)nc(SCCn3ccnc3)nc12` [Compound 4.26, 5-[2-(1-Imidazolyl)-1-ethyl]thio-3-isopropyl-7-[4-(2-pyridyl)benzyl]amino-1(2)H-pyrazolo[4,3-d]pyrimidine], the GI50 in assay [1] turned out to be 145 nM; in assay [2] it was 135 nM; in assay [3] it was 155 nM.

Turning to `C=CCSc1nc(NCc2ccc(-c3ccccn3)cc2)c2[nH]nc(C(C)C)c2n1` [Compound 4.2, 5-(Prop-2-en-1-yl)thio-3-isopropyl-7-[4-(2-pyridyl)benzyl]amino-1(2)H-pyrazolo[4,3-d]pyrimidine], the values for the GI50 in assay [1], in assay [2] and in assay [3] were 858 nM, 923 nM and 1000 nM, respectively.

With `CC(C)c1n[nH]c2c(NCc3ccc(-c4ccccn4)cc3)nc(SC3CCCCC3O)nc12` (stereo not drawn) [Compound 4.14, 5-(2-Hydroxycyclohexyl1-yl)thio-3-isopropyl-7-[4-(2-pyridyl)benzyl]amino-1(2)H-pyrazolo[4,3-d]pyrimidine], the GI50 in assay [1] was 680 nM; in assay [2] it was 530 nM; in assay [3] it was 636 nM.

Take `CC(C)c1n[nH]c2c(NCc3ccc(-c4ccccn4)cc3)nc(SCC(C)(C)O)nc12` [Compound 4.17, 5-(2-Hydroxy-2-methyl-1-propyl)thio-3-isopropyl-7-[4-(2-pyridyl)benzyl]amino-1(2)H-pyrazolo[4,3-d]pyrimidine]: the values for the GI50 in assay [1], in assay [2] and in assay [3] were 610 nM, 477 nM and 507 nM, respectively.

Take `CC(C)c1n[nH]c2c(NCc3ccc(-c4ccccn4)cc3)nc(SCCCN)nc12` [Compound 4.27, 5-(3-Amino-1-propyl)thio-3-isopropyl-7-[4-(2-pyridyl)benzyl]amino-1(2)H-pyrazolo[4,3-d]pyrimidine]: the values for the GI50 in assay [1], in assay [2] and in assay [3] were 151 nM, 156 nM and 120 nM, respectively.

`CC(C)c1n[nH]c2c(NCc3ccc(-c4ccccn4)cc3)nc(SCCNC(=N)N)nc12` [Compound 4.10, 5-(2-Guanidino-1-ethyl)thio-3-isopropyl-7-[4-(2-pyridyl)benzyl]amino-1(2)H-pyrazolo[4,3-d]pyrimidine]: the GI50 stood at 812 nM in assay [1], 390 nM in assay [2] and 390 nM in assay [3].

`CC(C)c1n[nH]c2c(NCc3ccc(-c4ccccn4)cc3)nc(SCCN(C)C)nc12` [Compound 4.19]: the results for the GI50 in assay [1], in assay [2] and in assay [3] were 61 nM, 93 nM and 54 nM, respectively.

For the molecule `CC(C)c1n[nH]c2c(NCc3ccc(-c4ccccn4)cc3)nc(SCC(C)(C)N)nc12` [Compound 4.13, 5-(2-Amino-2-methyl-1-propyl)thio-3-isopropyl-7-[4-(2-pyridyl)benzyl]amino-1(2)H-pyrazolo[4,3-d]pyrimidin], the GI50 in assay [1] worked out at 100 nM; in assay [2], 64 nM; in assay [3], 85 nM.

For `CCC(O)CSc1nc(NCc2ccc(-c3ccccn3)cc2)c2[nH]nc(C(C)C)c2n1` (stereo not drawn) [Compound 4.15, 5-(2-Hydroxy-1-butyl)thio-3-isopropyl-7-[4-(2-pyridyl)benzyl]amino-1(2)H-pyrazolo[4,3-d]pyrimidine], the GI50 amounted to 280 nM in assay [1], 427 nM in assay [2] and 273 nM in assay [3].

Turning to `CC(C)c1n[nH]c2c(NCc3ccc(-c4ccccn4)cc3)nc(SC(CO)C(C)C)nc12` (stereo not drawn) [Compound 4.21, 5-(1-Hydroxy-3-methyl-2-butyl)thio-3-isopropyl-7-[4-(2-pyridyl)benzyl]amino-1(2)H-pyrazolo[4,3-d]pyrimidine], the GI50 in assay [1] was determined as 1000 nM; in assay [2] it was 1310 nM; in assay [3] it was 980 nM.

On to `CC(C)c1n[nH]c2c(NCc3ccc(-c4ccccn4)cc3)nc(SCCCN(C)C)nc12` [Compound 4.20, 5[3-(Dimethylamino)-1-propyl]thio-3-isopropyl-7-[4-(2-pyridyl)benzyl]amino-1(2)H-pyrazolo[4,3-d]pyrimidine], for which the GI50 in assay [1] worked out at 109 nM; in assay [2], 76 nM; in assay [3] it was 105 nM.

In the case of `CC(C)c1n[nH]c2c(NCc3ccc(-c4ccccn4)cc3)nc(SCCO)nc12` [Compound 4.1, 5-(2-Hydroxy-1-ethyl)thio-3-isopropyl-7-[4-(2-pyridyl)benzyl]amino-1(2)H-pyrazolo[4,3-d]pyrimidine], the GI50 in assay [1] was determined as 50 nM; in assay [2], 40 nM; in assay [3] it was 48 nM.

Consider `CC(C)c1n[nH]c2c(NCc3ccc(-c4ccccn4)cc3)nc(SCC(O)C(F)(F)F)nc12` (stereo not drawn) [Compound 4.32, 5-(3,3,3-Trifluoro-2-hydroxy-1-propyl)thio-3-isopropyl-7-[4-(2-pyridyl)benzyl]amino-1(2)H-pyrazolo[4,3-d]pyrimidine], for which the GI50 in assay [1] was found to be 585 nM; in assay [2] it was 641 nM; in assay [3], 690 nM.

For `CC(C)c1n[nH]c2c(NCc3ccc(-c4ccccn4)cc3)nc(SCC(O)CN3CCOCC3)nc12` (stereo not drawn) [Compound 4.24], the GI50 in assay [1] came out at 200 nM; in assay [2], 243 nM; in assay [3], 200 nM.

Turning to `CC(O)CSc1nc(NCc2ccc(-c3ccccn3)cc2)c2[nH]nc(C(C)C)c2n1` (stereo not drawn) [Compound 4.3, 5-(2-Hydroxy-1-propyl)thio-3-isopropyl-7-[4-(2-pyridyl)benzyl]amino-1(2)H-pyrazolo[4,3-d]pyrimidine], the GI50 is 152 nM in assay [1], 81 nM in assay [2] and 62 nM in assay [3].

For `CC(C)c1n[nH]c2c(NCc3ccc(-c4ccccn4)cc3)nc(SCC(O)CN)nc12` (racemic) [Compound 4.23, 5-(R/S)-(3-Amino-2-hydroxy-1-propyl)thio-3-isopropyl-7-[4-(2-pyridyl)benzyl]amino-1(2)H-pyrazolo[4,3-d]pyrimidine], the values for the 50% growth inhibitory concentration (GI50) in assay [1], in assay [2] and in assay [3] were 55 nM, 64 nM and 55 nM, respectively.

Regarding `COCSc1nc(NCc2ccc(-c3ccccn3)cc2)c2[nH]nc(C(C)C)c2n1` [Compound 4.33, 5-(Methoxymethyl)thio-3-isopropyl-7-[4-(2-pyridyl)benzyl]amino-1(2)H-pyrazolo[4,3-d]pyrimidine], the GI50 in assay [1] stood at 285 nM; in assay [2] it was 243 nM; in assay [3] it was 340 nM.

With `CC(=O)NCCSc1nc(NCc2ccc(-c3ccccn3)cc2)c2[nH]nc(C(C)C)c2n1` [Compound 4.12, 5-(2-Acetylamino-1-ethyl)thio-3-isopropyl-7-[4-(2-pyridyl)benzyl]amino-1(2)H-pyrazolo[4,3-d]pyrimidine], the GI50 in assay [1] turned out to be 54 nM; in assay [2] it was 42 nM; in assay [3], 71 nM.
